Patent US9694016B2 (Novartis AG, priority 2013, dated 2017)
pIC50: −log10 of the molar value.

biological target: b-Raf (V600E) (Homo sapiens (Human), UniProt P15056, V600E); conditions: read-out: b-Raf IC-50; AlphaScreen, 60 min pre-incubation, 3 hours reaction
Sequence (P15056 whole entry V600E): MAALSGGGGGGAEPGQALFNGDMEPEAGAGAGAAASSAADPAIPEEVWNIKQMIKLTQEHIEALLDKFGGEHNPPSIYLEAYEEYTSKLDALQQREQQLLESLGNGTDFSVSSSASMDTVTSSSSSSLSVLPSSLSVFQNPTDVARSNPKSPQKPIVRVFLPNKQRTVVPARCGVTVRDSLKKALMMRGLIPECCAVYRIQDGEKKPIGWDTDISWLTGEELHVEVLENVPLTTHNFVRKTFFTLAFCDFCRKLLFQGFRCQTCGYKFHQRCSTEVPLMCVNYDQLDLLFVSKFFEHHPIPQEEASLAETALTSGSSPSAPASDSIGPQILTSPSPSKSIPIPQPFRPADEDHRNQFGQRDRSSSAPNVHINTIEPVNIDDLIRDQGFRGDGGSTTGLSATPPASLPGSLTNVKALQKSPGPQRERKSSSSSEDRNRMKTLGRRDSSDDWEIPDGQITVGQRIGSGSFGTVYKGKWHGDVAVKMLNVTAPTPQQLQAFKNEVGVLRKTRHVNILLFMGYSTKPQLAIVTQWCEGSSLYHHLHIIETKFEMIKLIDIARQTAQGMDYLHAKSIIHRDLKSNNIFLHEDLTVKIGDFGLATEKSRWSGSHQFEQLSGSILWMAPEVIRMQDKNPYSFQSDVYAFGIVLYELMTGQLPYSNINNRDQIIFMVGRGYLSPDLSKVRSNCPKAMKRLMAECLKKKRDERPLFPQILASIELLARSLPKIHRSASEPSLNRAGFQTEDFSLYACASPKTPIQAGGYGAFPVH

Going from `CCOc1nnc(-c2cc(NC(=O)c3ccnc(S(C)(=O)=O)c3)cnc2C)cc1N1CCOCC1` [Example 615, N-(5-(6-ethoxy-5-morpholinopyridazin-3-yl)-6-methylpyridin-3-yl)-2-(methylsulfonyl)isonicotinamide] to `CCOc1nnc(-c2cc(NC(=O)c3cccc(S(C)(=O)=O)c3)cnc2C)cc1N1CCOCC1` [Example 618, N-(5-(6-ethoxy-5-morpholinopyridazin-3-yl)-6-methylpyridin-3-yl)-3-(methylsulfonyl)benzamide], the pIC50 rises from 7.91 to 8.30 (0.39 log units).

`CCOc1nnc(-c2cc(NC(=O)c3ccnc(C(F)(F)F)c3)cnc2C)cc1N1CCOCC1` [Example 616, N-(5-(6-ethoxy-5-morpholinopyridazin-3-yl)-6-methylpyridin-3-yl)-2-(trifluoromethyl)isonicotinamide] and `CCOc1nnc(-c2cc(NC(=O)c3ccnc(C(C)(F)F)c3)cnc2C)cc1N1CCOCC1` [Example 620, 2-(1,1-difluoroethyl)-N-(5-(6-ethoxy-5-morpholinopyridazin-3-yl)-6-methylpyridin-3-yl)isonicotinamide] are within 0.2 log units of each other in pIC50: 8.80 for the first, 8.72 for the second.

`CCOc1nnc(-c2cc(NC(=O)c3ccnc(C(F)(F)CC)c3)cnc2C)cc1N1CCOCC1` [Example 617, 2-(1,1-difluoropropyl)-N-(5-(6-ethoxy-5-morpholinopyridazin-3-yl)-6-methylpyridin-3-yl)isonicotinamide] and `CCOc1nnc(-c2cc(NC(=O)c3ccnc(C(C)C)c3)cnc2C)cc1N1CCOCC1` [Example 621, N-(5-(6-ethoxy-5-morpholinopyridazin-3-yl)-6-methylpyridin-3-yl)-2-isopropylisonicotinamide] are within 0.2 log units of each other in pIC50: 8.46 for the first, 8.59 for the second.

Going from `CCOc1nnc(-c2cc(NC(=O)c3cccc(C(F)(F)F)c3)cnc2C)cc1N1CCOC[C@H]1C` [Example 622, (R)—N-(5-(6-ethoxy-5-(3-methylmorpholino)pyridazin-3-yl)-6-methylpyridin-3-yl)-3-(trifluoromethyl)benzamide] to `CCOc1nnc(-c2cc(NC(=O)c3ccnc(C(C)(C)C#N)c3)cnc2C)cc1N1CCOC[C@H]1C` [Example 623, (R)-2-(2-cyanopropan-2-yl)-N-(5-(6-ethoxy-5-(3-methylmorpholino)pyridazin-3-yl)-6-methylpyridin-3-yl)isonicotinamide], the pIC50 falls from 8.31 to 7.25 (1.06 log units).

`CCOc1nnc(-c2cc(NC(=O)c3ccnc(C(C)(C)C#N)c3)ccc2C)cc1N1CCOC[C@H]1C` [Example 624, (R)-2-(2-cyanopropan-2-yl)-N-(3-(6-ethoxy-5-(3-methylmorpholino)pyridazin-3-yl)-4-methylphenyl)isonicotinamide] and `Cc1ccc(NC(=O)c2ccnc(C(C)(C)C#N)c2)cc1-c1cc(N2CCOCC2)c(=O)n(C)n1` [Example 640, 2-(2-cyanopropan-2-yl)-N-(4-methyl-3-(1-methyl-5-morpholino-6-oxo-1,6-dihydropyridazin-3-yl)phenyl)isonicotinamide] are within 0.2 log units of each other in pIC50: 8.33 for the first, 8.27 for the second.

Going from `CCOc1nnc(-c2cc(NC(=O)c3ccc(CNC)c(C(F)(F)F)c3)cnc2C)cc1N1CCOCC1` [Example 626, N-(5-(6-ethoxy-5-morpholinopyridazin-3-yl)-6-methylpyridin-3-yl)-4-((methylamino)methyl)-3-(trifluoromethyl)benzamide] to `CCOc1nnc(-c2cc(NC(=O)c3ccc(CO)c(C(F)(F)F)c3)cnc2C)cc1N1CCOCC1` [Example 627, N-(5-(6-ethoxy-5-morpholinopyridazin-3-yl)-6-methylpyridin-3-yl)-4-(hydroxymethyl)-3-(trifluoromethyl)benzamide], the pIC50 rises from 7.85 to 8.43 (0.58 log units). The second is the more potent here.

First: Cc1ncc(NC(=O)c2ccnc(C(C)(F)F)c2)cc1-c1cc(N2CCOCC2)c(OC2CCOCC2)nn1 [Example 628, 2-(1,1-difluoroethyl)-N-(6-methyl-5-(5-morpholino-6-((tetrahydro-2H-pyran-4-yl)oxy)pyridazin-3-yl)pyridin-3-yl)isonicotinamide]
Second: Cc1ncc(NC(=O)c2ccnc(C(C)(C)F)c2)cc1-c1cc(N2CCOCC2)c(OC2CCOCC2)nn1 [Example 630, 2-(2-fluoropropan-2-yl)-N-(6-methyl-5-(5-morpholino-6-((tetrahydro-2H-pyran-4-yl)oxy)pyridazin-3-yl)pyridin-3-yl)isonicotinamide]
The pIC50 of the first is 0.20 log units higher: 8.74 for the first, 8.54 for the second.

`Cc1ncc(NC(=O)c2cc(C(F)(F)F)ccn2)cc1-c1cc(N2CCOCC2)c(OC2CCOCC2)nn1` [Example 629, N-(6-methyl-5-(5-morpholino-6-((tetrahydro-2H-pyran-4-yl)oxy)pyridazin-3-yl)pyridin-3-yl)-4-(trifluoromethyl)picolinamide] and `Cc1ncc(NC(=O)c2cccc(C(F)(F)F)c2)cc1-c1cc(N2CCOCC2)c(OC2CCOCC2)nn1` [Example 636, N-(6-methyl-5-(5-morpholino-6-((tetrahydro-2H-pyran-4-yl)oxy)pyridazin-3-yl)pyridin-3-yl)-3-(trifluoromethyl)benzamide] are within 0.2 log units of each other in pIC50: 8.92 for the first, 8.89 for the second.

Compared with `Cc1ncc(NC(=O)c2cnnc(C(F)(F)F)c2)cc1-c1cc(N2CCOCC2)c(OC2CCOCC2)nn1` [Example 631, N-(6-methyl-5-(5-morpholino-6-((tetrahydro-2H-pyran-4-yl)oxy)pyridazin-3-yl)pyridin-3-yl)-6-(trifluoromethyl)pyridazine-4-carboxamide], `Cc1ncc(NC(=O)c2ccnc(C(C)(C)O)c2)cc1-c1cc(N2CCOCC2)c(OC2CCOCC2)nn1` [Example 634, 2-(2-hydroxypropan-2-yl)-N-(6-methyl-5-(5-morpholino-6-((tetrahydro-2H-pyran-4-yl)oxy)pyridazin-3-yl)pyridin-3-yl)isonicotinamide] is 0.80 log units lower in pIC50: 8.57 for the first, 7.77 for the second.

`Cc1ncc(NC(=O)c2ccnc(S(C)(=O)=O)c2)cc1-c1cc(N2CCOCC2)c(OC2CCOCC2)nn1` [Example 632, N-(6-methyl-5-(5-morpholino-6-((tetrahydro-2H-pyran-4-yl)oxy)pyridazin-3-yl)pyridin-3-yl)-2-(methylsulfonyl)isonicotinamide] and `Cc1ncc(NC(=O)c2ccnc(C(C)(C)C#N)c2)cc1-c1cc(N2CCOCC2)c(OC2CCOCC2)nn1` [Example 633, 2-(2-cyanopropan-2-yl)-N-(6-methyl-5-(5-morpholino-6-((tetrahydro-2H-pyran-4-yl)oxy)pyridazin-3-yl)pyridin-3-yl)isonicotinamide] are within 0.2 log units of each other in pIC50: 8.12 for the first, 8.14 for the second.

Compared with `Cc1ccc(NC(=O)c2cccc(C(C)(C)S(C)(=O)=O)c2)cc1-c1cc(N2CCOCC2)c(=O)n(C)n1` [Example 637, N-(4-methyl-3-(1-methyl-5-morpholino-6-oxo-1,6-dihydropyridazin-3-yl)phenyl)-3-(2-(methylsulfonyl)propan-2-yl)benzamide], `Cc1ccc(NC(=O)c2ccnc(C(C)(C)O)c2)cc1-c1cc(N2CCOCC2)c(=O)n(C)n1` [Example 638, 2-(2-hydroxypropan-2-yl)-N-(4-methyl-3-(1-methyl-5-morpholino-6-oxo-1,6-dihydropyridazin-3-yl)phenyl)isonicotinamide] is 0.42 log units higher in pIC50: 7.60 for the first, 8.02 for the second. The second is the more potent here.

Compound `Cc1ccc(NC(=O)c2cccc(-c3nnco3)c2)cc1-c1cc(N2CCOCC2)c(=O)n(C)n1` [Example 639, N-(4-methyl-3-(1-methyl-5-morpholino-6-oxo-1,6-dihydropyridazin-3-yl)phenyl)-3-(1,3,4-oxadiazol-2-yl)benzamide] has a pIC50 of 8.14.
